# Laboratory results: ChEMBL document CHEMBL3885861, “Open TG-GATES”
# Species on record: Rattus norvegicus
# Assay: Open TG-GATES - Regimen: Daily Repeat
# Format: toxicity, organism-based, Sprague-Dawley
# Parameters: regimen Daily Repeat, gender Male, age 6 weeks
# Conditions: in vivo, po, 150 mg/kg, route gavage, dose level High; for APTT / Bas / Eos / Fbg / Hb / Ht / Lym / MCHC / MCV / Mono / Neu / PT / Plat / RBC / Ret / WBC: tissue Blood; for KIDNEY_L / KIDNEY_R / KIDNEY_TOTAL: tissue Kidney; for LIVER: tissue Liver; for ALP / ALT / AST / BUN / CRE / Ca / Cl / DBIL / GLC / IP / K / LDH / Na / PL / RALB / TBIL / TC / TG / TP / gamma-GTP: tissue Plasma
smiles,measurement,setting,value
C1CCC(C(CC2CCCCN2)C2CCCCC2)CC1 (centres undefined) [PERHEXILINE],TERMINAL_BW,"72 h, time 3 day",212.7 g
same,APTT,"72 h, time 3 day",22.7 s
same,Bas,"72 h, time 3 day",0%
same,Eos,"72 h, time 3 day",0.8%
same,Fbg,"72 h, time 3 day",312.8 mg/dL
same,Hb,"72 h, time 3 day",13.9 g/dL
same,Ht,"72 h, time 3 day",41.3%
same,Lym,"72 h, time 3 day",80%
same,MCHC,"72 h, time 3 day",33.8%
same,MCV,"72 h, time 3 day",61.4 fL
same,Mono,"72 h, time 3 day",1.8%
same,Neu,"72 h, time 3 day",16.5%
same,PT,"72 h, time 3 day",16.8 s
same,Plat,"72 h, time 3 day",130.8 x10_4/uL
same,RBC,"72 h, time 3 day",673.2 x10_4/ul
same,Ret,"72 h, time 3 day",4.4%
same,WBC,"72 h, time 3 day",100 x10_2/uL
same,KIDNEY_L,"72 h, time 3 day",1 g
same,KIDNEY_R,"72 h, time 3 day",0.9 g
same,KIDNEY_TOTAL,"72 h, time 3 day",1.9 g
same,LIVER,"72 h, time 3 day",9.8 g
same,ALP,"72 h, time 3 day",1606.6 IU/L
same,ALT,"72 h, time 3 day",43.6 IU/L
same,AST,"72 h, time 3 day",69 IU/L
same,BUN,"72 h, time 3 day",15.4 mg/dL
same,CRE,"72 h, time 3 day",0.2 mg/dL
same,Ca,"72 h, time 3 day",11 mg/dL
same,Cl,"72 h, time 3 day",106.6 meq/L
same,DBIL,"72 h, time 3 day",0.002 mg/dL
same,GLC,"72 h, time 3 day",187.2 mg/dL
same,IP,"72 h, time 3 day",7.4 mg/dL
same,K,"72 h, time 3 day",4 meq/L
same,LDH,"72 h, time 3 day",267.2 IU/L
same,Na,"72 h, time 3 day",142.4 meq/L
same,PL,"72 h, time 3 day",150 mg/dL
same,RALB,"72 h, time 3 day",3 g/dL
same,TBIL,"72 h, time 3 day",0.006 mg/dL
same,TC,"72 h, time 3 day",75.6 mg/dL
same,TG,"72 h, time 3 day",107.8 mg/dL
same,TP,"72 h, time 3 day",5.4 g/dL
same,gamma-GTP,"72 h, time 3 day",1 IU/L
same,TERMINAL_BW,"[…], time 7 day",255.5 g
same,TERMINAL_BW,"[…], time 14 day",291.9 g
same,TERMINAL_BW,"[…], time 28 day",322.6 g
same,APTT,"[…], time 7 day",23.3 s
same,Bas,"[…], time 7 day",0%
same,Eos,"[…], time 7 day",0.6%
same,Fbg,"[…], time 7 day",313.8 mg/dL
same,Hb,"[…], time 7 day",14.3 g/dL
same,Ht,"[…], time 7 day",42.2%
same,Lym,"[…], time 7 day",79%
same,MCHC,"[…], time 7 day",33.9%
same,MCV,"[…], time 7 day",63.4 fL
same,Mono,"[…], time 7 day",1.4%
same,Neu,"[…], time 7 day",17.8%
same,PT,"[…], time 7 day",15.5 s
same,Plat,"[…], time 7 day",120.2 x10_4/uL
same,RBC,"[…], time 7 day",665.4 x10_4/ul
same,Ret,"[…], time 7 day",5.2%
same,WBC,"[…], time 7 day",103.4 x10_2/uL
same,APTT,"[…], time 14 day",22.3 s
same,Bas,"[…], time 14 day",0%
same,Eos,"[…], time 14 day",0.8%
same,Fbg,"[…], time 14 day",311 mg/dL
same,Hb,"[…], time 14 day",14.4 g/dL
same,Ht,"[…], time 14 day",41.8%
same,Lym,"[…], time 14 day",72%
same,MCHC,"[…], time 14 day",34.4%
same,MCV,"[…], time 14 day",59.9 fL
same,Mono,"[…], time 14 day",2.2%
same,Neu,"[…], time 14 day",24%
same,PT,"[…], time 14 day",15.8 s
same,Plat,"[…], time 14 day",115.8 x10_4/uL
same,RBC,"[…], time 14 day",697.8 x10_4/ul
same,Ret,"[…], time 14 day",4.7%
same,WBC,"[…], time 14 day",121.2 x10_2/uL
same,APTT,"[…], time 28 day",23.3 s
same,Bas,"[…], time 28 day",0%
same,Eos,"[…], time 28 day",0.6%
same,Fbg,"[…], time 28 day",313.8 mg/dL
same,Hb,"[…], time 28 day",14.3 g/dL
same,Ht,"[…], time 28 day",42.2%
same,Lym,"[…], time 28 day",79%
same,MCHC,"[…], time 28 day",33.9%
same,MCV,"[…], time 28 day",63.4 fL
same,Mono,"[…], time 28 day",1.4%
same,Neu,"[…], time 28 day",17.8%
same,PT,"[…], time 28 day",15.5 s
same,Plat,"[…], time 28 day",120.2 x10_4/uL
same,RBC,"[…], time 28 day",665.4 x10_4/ul
same,Ret,"[…], time 28 day",5.2%
same,WBC,"[…], time 28 day",103.4 x10_2/uL
same,KIDNEY_L,"[…], time 7 day",1.1 g
same,KIDNEY_R,"[…], time 7 day",1.2 g
same,KIDNEY_TOTAL,"[…], time 7 day",2.3 g
same,KIDNEY_L,"[…], time 14 day",1.2 g
same,KIDNEY_R,"[…], time 14 day",1.2 g
same,KIDNEY_TOTAL,"[…], time 14 day",2.4 g
same,KIDNEY_L,"[…], time 28 day",1.2 g
same,KIDNEY_R,"[…], time 28 day",1.2 g
same,KIDNEY_TOTAL,"[…], time 28 day",2.5 g
same,LIVER,"[…], time 7 day",11.9 g
same,LIVER,"[…], time 14 day",13 g
same,LIVER,"[…], time 28 day",12.8 g
same,ALP,"[…], time 7 day",1641 IU/L
same,ALT,"[…], time 7 day",35 IU/L
same,AST,"[…], time 7 day",61.8 IU/L
same,BUN,"[…], time 7 day",17.8 mg/dL
same,CRE,"[…], time 7 day",0.2 mg/dL
same,Ca,"[…], time 7 day",10.6 mg/dL
same,Cl,"[…], time 7 day",106.2 meq/L
same,DBIL,"[…], time 7 day",0 mg/dL
same,GLC,"[…], time 7 day",197.6 mg/dL
same,IP,"[…], time 7 day",8.1 mg/dL
same,K,"[…], time 7 day",4.3 meq/L
same,LDH,"[…], time 7 day",200.4 IU/L
same,Na,"[…], time 7 day",142.8 meq/L
same,PL,"[…], time 7 day",158.4 mg/dL
same,RALB,"[…], time 7 day",3 g/dL
same,TBIL,"[…], time 7 day",0.006 mg/dL
same,TC,"[…], time 7 day",76 mg/dL
same,TG,"[…], time 7 day",138.4 mg/dL
same,TP,"[…], time 7 day",5.7 g/dL
same,gamma-GTP,"[…], time 7 day",1.4 IU/L
same,ALP,"[…], time 14 day",1470.2 IU/L
same,ALT,"[…], time 14 day",38 IU/L
same,AST,"[…], time 14 day",63.2 IU/L
same,BUN,"[…], time 14 day",18.2 mg/dL
same,CRE,"[…], time 14 day",0.2 mg/dL
same,Ca,"[…], time 14 day",10.7 mg/dL
same,Cl,"[…], time 14 day",105.8 meq/L
same,DBIL,"[…], time 14 day",0.004 mg/dL
same,GLC,"[…], time 14 day",206.6 mg/dL
same,IP,"[…], time 14 day",7.2 mg/dL
same,K,"[…], time 14 day",4.2 meq/L
same,LDH,"[…], time 14 day",180.2 IU/L
same,Na,"[…], time 14 day",143 meq/L
same,PL,"[…], time 14 day",151.8 mg/dL
same,RALB,"[…], time 14 day",3 g/dL
same,TBIL,"[…], time 14 day",0.008 mg/dL
same,TC,"[…], time 14 day",70 mg/dL
same,TG,"[…], time 14 day",154.6 mg/dL
same,TP,"[…], time 14 day",5.8 g/dL
same,gamma-GTP,"[…], time 14 day",1.2 IU/L
same,ALP,"[…], time 28 day",1254 IU/L
same,ALT,"[…], time 28 day",39.8 IU/L
same,AST,"[…], time 28 day",62.8 IU/L
same,BUN,"[…], time 28 day",16 mg/dL
same,CRE,"[…], time 28 day",0.2 mg/dL
same,Ca,"[…], time 28 day",10.4 mg/dL
same,Cl,"[…], time 28 day",107.2 meq/L
same,DBIL,"[…], time 28 day",0 mg/dL
same,GLC,"[…], time 28 day",199.2 mg/dL
same,IP,"[…], time 28 day",6.4 mg/dL
same,K,"[…], time 28 day",4 meq/L
same,LDH,"[…], time 28 day",162.8 IU/L
same,Na,"[…], time 28 day",144.2 meq/L
same,PL,"[…], time 28 day",148 mg/dL
same,RALB,"[…], time 28 day",3 g/dL
same,TBIL,"[…], time 28 day",0.006 mg/dL
same,TC,"[…], time 28 day",68 mg/dL
same,TG,"[…], time 28 day",150.4 mg/dL
same,TP,"[…], time 28 day",5.9 g/dL
same,gamma-GTP,"[…], time 28 day",1 IU/L
